Our source for the Ki values is patent US20150175655A1 (priority 2012, published 2015).

Broadly, the Ki is a measure of affinity in units of concentration, obtained from inhibition or displacement.

One assay concerns the target T1, NS3 genotype 1b protease (Hepatitis C virus genotype 1b, UniProt Q9WMX2, E1202G).
T1 construct: Purified NS3 protease domain (amino acids 1-181) of the genotype 1b and 3a virus were generated as above; K3 hexahistidine tag (N); rTEV protease cleavage site (N); made in house; host or cells: E. coli BL21AI, pET28 vector p28-N6H-Tev-NS3(181)1b
Briefly: Ki determination, NS3 protease genotype 1b (fluorogenic depsipeptide substrate).
Details: not given
It is filed as biochemical. From the text:
The coding sequence of the genotype 1b (con-1 strain) HCV NS3 protease domain was PCR amplified from a plasmid encoding the I389luc-ubi-neo/NS3-3′/ET replicon (Reblikon, Mainz, Germany). The 5′-PCR primer was designed to encode an N-terminal K3 hexahistidine tag and to insert an in-frame recombinant Tobacco Etch virus (rTEV) protease cleavage site into the NS3 coding sequence. The resulting DNA fragment was cloned into the pET28 protein expression vector (Invitrogen, Carlsbad, Calif.) yielding the p28-N6H-Tev-NS3(181)1b.
BL21AI bacteria (Invitrogen, Carlsbad, Calif.) were transformed with genotype 1b or 3 NS3 expression vectors and used to inoculate a 20 L fermentation vessel (Sartorius BBI System Inc., Bethlehem, Pa.), containing 18 L of fresh 2YT medium supplemented with 50 μg/mL kanamycin. When cell densities reached an OD600 of 1, the temperature of the cultures was reduced from 37° C. to 28° C. and induction was immediately initiated by the addition of 30 μM ZnSO4, 14 mM L-arabinose and 1 mM Isopropyl β-D-thiogalactoside (IPTG) final concentrations. Cells were harvested by centrifugation four hours post-induction and were stored as frozen pellets at −80° C. prior to NS3 protein purification.
Cell pellets were thawed and resuspended at 10 mL/g cells in lysis buffer containing 50 mM tris pH 7.6, 300 mM NaCl, 0.1% 3-[(3-cholamidopropyl)dimethylammonio]-1-propanesulfonate (CHAPS), 5% glycerol, and 2 mM β-mercaptoethanol. Cell suspensions were then sonicated, filtered through cheesecloth, and passed three times through a microfluidizer at 18,000 pounds/in^2. The resulting lysates were centrifuged at 15500 rpm for 45 minutes and supernatants were loaded onto a HisTrap HP column (GE Lifesciences) pre-equilibrated with five volumes of Ni buffer A (50 mM tris pH 7.6, 300 mM NaCl, 0.1% CHAPS, 5% glycerol, 2 mM β-mercaptoethanol, 50 mM imidazole-HCl). Proteins were eluted with a 0-100% gradient of Ni buffer A plus 500 mM imidazole-HCl and fractions were collected and pooled. The HisTrap pool was diluted 1:10 with SP-A buffer (50 mM tris pH 7.0, 10% glycerol, 2 mM dithiothreitol (DTT)) and loaded onto a HiTrap SP-HP column (GE Lifesciences) equilibrated with SP-A buffer. NS3 protease was eluted with a 0-100% SP-B buffer (SP-A buffer plus 1 M NaCl) gradient. Concentrated pools of NS3-containing SP fractions were aliquoted, snap frozen in liquid nitrogen and stored at −80° C.
Purified NS3 protease domain (amino acids 1-181) of the genotype 1b and 3a virus were generated as above.
Reactions were run at room temperature in buffer consisting of 50 mM HEPES, 40% glycerol, 0.05% Triton X-100, 10 mM DTT, and 10% DMSO. The final assay solutions contained 50 pM NS3 genotype 1b protease or 200 pM genotype 3a protease, 20 μM NS4A peptide, and 4 μM substrate (genotype 1 b) or 2 μM substrate (genotype 3a). Inhibitor concentrations varied from 100 nM to 5 pM in 3-fold dilutions, and no-inhibitor controls were included.
Compound dilutions were made in DMSO at 20× final concentration. Reaction mixtures were prepared in 96-well assay plates. A solution of enzyme and NS4A peptide in assay buffer (25 μL volume with both reagents at 4× final concentration) was mixed with 45 μL assay buffer and 5 μL of either inhibitor or DMSO, and pre-incubated at room temperature for 1 hour. The reaction was started by addition of 25 μL substrate solution at 4× final concentration. Plates were mixed vigorously for 5-10 seconds and reactions were allowed to proceed for 90 minutes. fluorescence was measured every 30 s between 90 and 120 minutes reaction time using a Tecan InfiniTe M1000 or PerkinElmer Envision multimode plate reader with an excitation wavelength of 340 nm and an emission wavelength of 490 nm.
To determine the K, rates were plotted as a function of inhibitor concentration, and the data were fit with equation 1 (Morrison, J. F., Biochimica et Biophysica Acta 1969, 185, 269-286) to calculate Ki^app using GraphPad Prism 5.
For `COc1ccc2nc3c(nc2c1)O[C@H]1CN(C(=O)[C@H](C(C)(C)C)NC(=O)O[C@]2(C)C[C@H]2CCCCC3(F)F)[C@H](C(=O)N[C@]2(C(=O)NS(=O)(=O)C3(C)CC3)C[C@H]2C(F)F)[C@@H]1C` (single isomer, unassigned) [Example 76], the Ki was 0.03 nM. Same read-out and setting: the result for `CC[C@@H]1[C@@H]2CN(C(=O)[C@H](C(C)(C)C)NC(=O)O[C@@H]3C[C@H]3CCCCCc3nc4ccc(OC)cc4nc3O2)[C@@H]1C(=O)N[C@]1(C(=O)NS(=O)(=O)C2(C)CC2)C[C@H]1C(F)F` [Example 1, (1aR,5S,8S,9S,10R,22aR)-5-tert-butyl-N-[ (1R,2R)-2-(difluoromethyl)-1-{[(1-methylcyclopropyl)sulfonyl]carbamoyl}cyclopropyl]-9-ethyl-14-methoxy-3,6-dioxo-1,1a,3,4,5,6,9,10,18,19,20,21,22,22a-tetradecahydro-8H-7,10-methanocyclopropa[18,19][1,10,3,6]dioxadiazacyclononadecino[11,12-b]quinoxaline-8-carboxamide] reads 0.03 nM; that for `CC[C@@H]1[C@@H]2CN(C(=O)[C@H](C(C)(C)C)NC(=O)O[C@@H]3C[C@H]3CCCCC(F)(F)c3nc4ccc(OC)cc4nc3O2)[C@@H]1C(=O)N[C@]1(C(=O)NS(=O)(=O)C2(C)CC2)C[C@H]1C(F)F` [Example 17, (1aR,5S,8S,9S,10R,22aR)-5-tert-butyl-N-[(1R,2R)-2-(difluoromethyl)-1-{[(1-methylcyclopropyl)sulfonyl]carbamoyl}cyclopropyl]-9-ethyl-18,18-difluoro-14-methoxy-3,6-dioxo-1,1a,3,4,5,6,9,10,18,19,20,21,22,22a-tetradecahydro-8H-7,10-methanocyclopropa[18,19][1,10,3,6]dioxadiazacyclononadecino[11,12-b]quinoxaline-8-carboxamide], 0.04 nM; that for `CC[C@@H]1[C@@H]2CN(C(=O)[C@H](C(C)(C)C)NC(=O)O[C@@H]3C[C@H]3CCCC3CC3c3nc4ccc(OC)cc4nc3O2)[C@@H]1C(=O)N[C@]1(C(=O)NS(=O)(=O)C2(C)CC2)C[C@H]1C(F)F` (stereo partly drawn) [Example 36, (1aR,5S,8S,9S,10R,21aR)-5-tert-butyl-N-[(1R,2R)-2-(difluoromethyl)-1-{[(1-methylcyclopropyl)sulfonyl]carbamoyl}cyclopropyl]-9-ethyl-14-methoxy-3,6-dioxo-1a,3,4,5,6,9,10,17b,18,18a,19,20,21,21a-tetradecahydro-1H,8H-7,10-methanodicyclopropa[13,14:18,19][1,10,3,6]dioxadiazacyclononadecino[11,12-b]quinoxaline-8-carboxamide], 0.1 nM.

In turn, `CC[C@@H]1[C@@H]2CN(C(=O)[C@H](C(C)(C)C)NC(=O)O[C@]3(C)CCC[C@H]3CCCCCc3nc4ccc(OC)cc4nc3O2)[C@@H]1C(=O)N[C@]1(C(=O)NS(=O)(=O)C2(C)CC2)C[C@H]1C(F)F` [Example 39, (3aR,7S,10S,11S,12R,24aR)-7-tert-butyl-N-[(1R,2R)-2-(difluoromethyl)-1-{[(1-methylcyclopropyl)sulfonyl]carbamoyl}cyclopropyl]-11-ethyl-16-methoxy-3a-methyl-5,8-dioxo-1,2,3,3a,5,6,7,8,11,12,20,21,22,23,24,24a-hexadecahydro-10H-9,12-methanocyclopenta[18,19][1,10,3,6]dioxadiazacyclononadecino[11,12-b]quinoxaline-10-carboxamide] gave a Ki of 0.08 nM.

On to `CC[C@]12C[C@@H]1CCCCCc1nc3ccc(OC)cc3nc1O[C@H]1CN(C(=O)[C@H](C(C)(C)C)NC(=O)O2)[C@H](C(=O)N[C@]2(C(=O)NS(=O)(=O)C3(C)CC3)C[C@H]2C(F)F)[C@@H]1C` [Example 42, (1aS,5S,8S,9S,10R,22aS)-5-tert-butyl-N-[(1R,2R)-2-(difluoromethyl)-1-{[(1-methylcyclopropyl)sulfonyl]carbamoyl}cyclopropyl]-1a-ethyl-14-methoxy-9-methyl-3,6-dioxo-1,1a,3,4,5,6,9,10,18,19,20,21,22,22a-tetradecahydro-8H-7,10-methanocyclopropa[18,19][1,10,3,6]dioxadiazacyclononadecino[11,12-b]quinoxaline-8-carboxamide], for which the Ki came to 0.1 nM. On the same count and under the same terms, the result for `CC[C@@]12C[C@H]1CCCCCc1nc3ccc(OC)cc3nc1O[C@H]1CN(C(=O)[C@H](C(C)(C)C)NC(=O)O2)[C@H](C(=O)N[C@]2(C(=O)NS(=O)(=O)C3(C)CC3)C[C@H]2C(F)F)[C@@H]1C` [Example 43, (1aR,5S,8S,9S,10R,22aR)-5-tert-butyl-N-[(1R,2R)-2-(difluoromethyl)-1-{[(1-methylcyclopropyl)sulfonyl]carbamoyl}cyclopropyl]-1a-ethyl-14-methoxy-9-methyl-3,6-dioxo-1,1a,3,4,5,6,9,10,18,19,20,21,22,22a-tetradecahydro-8H-7,10-methanocyclopropa[18,19][1,10,3,6]dioxadiazacyclononadecino[11,12-b]quinoxaline-8-carboxamide] reads 0.06 nM; that for `COc1ccc2nc3c(nc2c1)O[C@H]1CN(C(=O)[C@H](C(C)(C)C)NC(=O)O[C@@H]2C[C@H]2CCCCC3(F)F)[C@H](C(=O)N[C@]2(C(=O)NS(=O)(=O)C3(C)CC3)C[C@H]2C(F)F)[C@@H]1C` [Example 46, (1aR,5S,8S,9S,10R,22aR)-5-tert-butyl-N-[(1R,2R)-2-(difluoromethyl)-1-{[(1-methylcyclopropyl)sulfonyl]carbamoyl}cyclopropyl]-18,18-difluoro-14-methoxy-9-methyl-3,6-dioxo-1,1a,3,4,5,6,9,10,18,19,20,21,22,22a-tetradecahydro-8H-7,10-methanocyclopropa[18,19][1,10,3,6]dioxadiazacyclononadecino[11,12-b]quinoxaline-8-carboxamide], 0.03 nM.

Still in this assay, the particulars now being: NS3 protease genotype 1b, 50 pM enzyme, 20 μM NS4A peptide, 4 μM substrate; read-out: Ki 1B.
As for `CC[C@@H]1[C@@H]2CN(C(=O)[C@H](C(C)(C)C)NC(=O)O[C@]3(C(F)(F)F)CCCC3CCCCCc3nc4ccc(OC)cc4nc3O2)[C@@H]1C(=O)N[C@]1(C(=O)NS(=O)(=O)C2(C)CC2)C[C@H]1C(F)F` (stereo partly drawn) [Example 9, (7S,10S,11S,12R)-7-tert-butyl-N-[(1R,2R)-2-(difluoromethyl)-1-{[(1-methylcyclopropyl)sulfonyl]carbamoyl}cyclopropyl]-11-ethyl-16-methoxy-5,8-dioxo-3aR-(trifluoromethyl)-1,2,3,3a,5,6,7,8,11,12,20,21,22,23,24,24a-hexadecahydro-10H-9,12-methanocyclopenta[18,19][1,10,3,6]dioxadiazacyclononadecino[11,12-b]quinoxaline-10-carboxamide], the Ki is 0.15 nM. In the case of `CC[C@@H]1[C@@H]2CN(C(=O)[C@H](C(C)(C)C)NC(=O)O[C@@]3(C(F)(F)F)CCCC3CCCCCc3nc4ccc(OC)cc4nc3O2)[C@@H]1C(=O)N[C@]1(C(=O)NS(=O)(=O)C2(C)CC2)C[C@H]1C(F)F` (stereo partly drawn) [Example 10, (7S,10S,11S,12R)-7-tert-butyl-N-[(1R,2R)-2-(difluoromethyl)-1-{[(1-methylcyclopropyl)sulfonyl]carbamoyl}cyclopropyl]-11-ethyl-16-methoxy-5,8-dioxo-3aS-(trifluoromethyl)-1,2,3,3a,5,6,7,8,11,12,20,21,22,23,24,24a-hexadecahydro-10H-9,12-methanocyclopenta[18,19][1,10,3,6]dioxadiazacyclononadecino[11,12-b]quinoxaline-10-carboxamide], the Ki was 0.16 nM.
